Data published in BindingDB's records for doi:10.1016/j.bmc.2019.115161 (Iwate University, 2019).
pIC50: −log10 of the molar value.

Columns and labels:
[1] = Inhibition of caspase-like activity of beta1 subunit of 20S proteasome in human erythrocytes using Z-LLE-MCA as substrate preincubated with enzyme for 10 mins followed by substrate addition and measured after 3 hrs by fluorescence spectrophotometeric analysis
[2] = Inhibition of trypsin-like activity of beta2 subunit of 20S proteasome in human erythrocytes using Boc-LRR-MCA as substrate preincubated with enzyme for 10 mins followed by substrate addition and measured after 3 hrs by fluorescence spectrophotometric analysis

With `C=C1CC[C@H]2C(C)(C)[C@H](O)CC[C@]2(C)[C@H]1C[C@]12O[C@H]1[C@H](O)C(CO)=CC2=O` the pIC50 [1] was under 4.00 and the pIC50 [2] was under 4.00.

`C=C1CC[C@H]2C(C)(C)[C@H](O)CC[C@]2(C)[C@H]1C[C@]12O[C@H]1C(=O)C(COC(=O)[C@H](O)[C@H](C)O)=CC2=O` showed a pIC50 [1] of 5.28 and a pIC50 [2] of 4.55.

`C=C1CC[C@H]2C(C)(C)[C@H](O)CC[C@]2(C)[C@H]1C[C@]12O[C@H]1[C@H](O)C(COC(=O)[C@H](O)[C@H](C)O)=CC2=O` gave a pIC50 [1] of 4.06 and a pIC50 [2] of under 4.00.

For `C=C1CC[C@H]2C(C)(C)[C@H](O)CC[C@]2(C)[C@H]1C[C@]12O[C@H]1[C@H](O)C(COC(=O)C[C@H](C)O)=CC2=O`, the pIC50 [1] was 4.52 and the pIC50 [2] was under 4.00.

`C=C1CC[C@H]2C(C)(C)[C@H](O)CC[C@]2(C)[C@H]1C[C@]12O[C@H]1C(=O)C(CO)=CC2=O` gave a pIC50 [1] of 4.75 and a pIC50 [2] of 4.12.

`C=C1CC[C@H]2C(C)(C)[C@H](O)CC[C@]2(C)[C@H]1C[C@]12O[C@H]1C(=O)C(COC(=O)C[C@H](C)O)=CC2=O` gave a pIC50 [1] of 5.41 and a pIC50 [2] of 4.65.
